# Results reported in ChEMBL document CHEMBL1201862, “PubChem BioAssay data set” (2004).
# Calls of active or inactive are those of the source.
# How the values were obtained:
# [1] = biological target: T1, Heat shock factor protein 1 (Mus musculus, UniProt P38532); test: decrease of HSF1-responsive luciferase luminescence – cell-based, NIH3T3, dose retest, confirmation (AID 2382); type: functional;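 further: NIH3T3 fibroblasts with HSF1-driven luciferase reporter stressed by proteasome inhibitor MG132; luminescence from HSF1-driven luciferase expression after 8 hours of MG132 stress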
# T1 sequence (P38532 whole entry): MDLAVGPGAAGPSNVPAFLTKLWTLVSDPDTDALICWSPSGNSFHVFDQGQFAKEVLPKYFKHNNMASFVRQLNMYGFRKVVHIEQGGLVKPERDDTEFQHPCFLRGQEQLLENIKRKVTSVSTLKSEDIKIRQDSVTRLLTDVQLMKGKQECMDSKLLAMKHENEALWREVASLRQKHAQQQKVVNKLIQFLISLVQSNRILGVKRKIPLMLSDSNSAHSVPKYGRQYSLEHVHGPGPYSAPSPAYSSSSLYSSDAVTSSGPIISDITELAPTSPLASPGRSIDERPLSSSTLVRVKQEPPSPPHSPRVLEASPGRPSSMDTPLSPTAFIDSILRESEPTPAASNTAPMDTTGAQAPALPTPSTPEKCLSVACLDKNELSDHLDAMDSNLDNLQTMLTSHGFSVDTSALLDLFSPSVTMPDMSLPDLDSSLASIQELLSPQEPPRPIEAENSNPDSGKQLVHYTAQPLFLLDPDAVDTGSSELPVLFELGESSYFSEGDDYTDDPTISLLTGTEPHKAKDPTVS
# [2] = viability of uninfected HEp-2 cells – cell-based, HTS, cytotoxicity control for RSV inhibitor project, dose response (AID 2410); type: functional; details: human respiratory syncytial virus
# [3] = biological target: T2, Corticotropin-releasing factor receptor 2/Corticotropin-releasing factor-binding protein (Homo sapiens, UniProt P24387+Q13324); test: activators of CRF receptor 2 with binding protein – uHTS hits, confirmation (AID 602473); type: functional; details: read-out: EC50_Mean
# T2 sequence (Q13324 whole entry): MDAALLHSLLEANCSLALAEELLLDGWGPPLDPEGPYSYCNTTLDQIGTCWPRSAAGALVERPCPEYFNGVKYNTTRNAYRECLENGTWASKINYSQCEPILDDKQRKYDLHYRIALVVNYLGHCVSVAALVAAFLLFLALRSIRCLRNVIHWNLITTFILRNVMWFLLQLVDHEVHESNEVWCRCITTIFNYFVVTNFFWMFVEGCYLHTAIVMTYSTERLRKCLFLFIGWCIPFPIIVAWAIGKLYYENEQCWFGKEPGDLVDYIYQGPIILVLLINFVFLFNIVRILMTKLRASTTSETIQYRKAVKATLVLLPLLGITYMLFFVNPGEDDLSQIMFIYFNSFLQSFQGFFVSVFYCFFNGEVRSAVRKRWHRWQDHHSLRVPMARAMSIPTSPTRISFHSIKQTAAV
# T2 sequence (P24387 whole entry): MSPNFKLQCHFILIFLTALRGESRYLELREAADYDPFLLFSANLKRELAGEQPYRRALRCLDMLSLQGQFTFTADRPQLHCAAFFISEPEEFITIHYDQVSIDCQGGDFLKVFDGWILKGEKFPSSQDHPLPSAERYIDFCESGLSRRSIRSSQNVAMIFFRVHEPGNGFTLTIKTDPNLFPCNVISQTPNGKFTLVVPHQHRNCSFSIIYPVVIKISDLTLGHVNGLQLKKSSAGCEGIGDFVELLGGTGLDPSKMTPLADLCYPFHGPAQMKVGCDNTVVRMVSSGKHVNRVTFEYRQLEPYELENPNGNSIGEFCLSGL
# [4] = luciferase reporter signal suppression in cells – H4 neuroglioma cells, luminescence, dose response (AID 1990); type: functional, cell-based
# [5] = Luminescence Cell-Based Dose Response HTS to Identify Inhibitors of 5'UTR Stem-Loop Driven Prion Protein mRNA Translation in H4 Neuroglioblastoma Cells. [Related pubchem assays: 1827 (Project Summary), 1813 (Primary HTS)]; type: functional
# [6] = alpha-synuclein stem-loop luciferase translation blockers – H4 neuroglioma cells, luminescence, confirmation (AID 1988); type: functional, cell-based
# [7] = Luminescence Cell-Based Dose Retest to Confirm Inhibitors of Cancer Stem Cells. [Related pubchem assays (depositor defined):AID2717, AID2721]; type: functional; details: Homo sapiens
# [8] = biological target: Cytochrome P450 2C19 (Homo sapiens, UniProt P33261); test: Cytochrome panel assay with activity outcomes. Panel member name: p450-cyp2c19 Compounds with AC50 equal or less than 10 uM are considered active; type: functional; details: read-out: AC50
# [9] = biological target: Cytochrome P450 2C9 (Homo sapiens, UniProt P11712)
# [10] = biological target: Cytochrome P450 3A4 (Homo sapiens, UniProt P08684);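 further: CYP3A4 tested as one member of a cytochrome P450 panel screen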
# [11] = Trypanosoma cruzi growth suppression in host cells – NIH3T3 host cells, beta-gal luminescence, confirmation (AID 2044); type: functional, cell-based;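 further: intracellular parasites grown in NIH/3T3 mouse fibroblasts as host cells; luminescent beta-galactosidase reporter signal from transgenic T. cruzi replicating inside host cells; inhibitors lower the luminescence signal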
# [12] = NIH3T3 cell viability loss – ATP luminescence, mouse fibroblasts, counter-screen, dose response (AID 2010); type: functional, cell-based;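 further: cells exposed to compound for about 90 hours before reading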
# [13] = biological target: T3, Cytochrome P450 1A2 (Homo sapiens, UniProt P05177);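 further: PubChem cytochrome P450 panel assay, CYP1A2 panel member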
# T3 sequence (P05177 whole entry): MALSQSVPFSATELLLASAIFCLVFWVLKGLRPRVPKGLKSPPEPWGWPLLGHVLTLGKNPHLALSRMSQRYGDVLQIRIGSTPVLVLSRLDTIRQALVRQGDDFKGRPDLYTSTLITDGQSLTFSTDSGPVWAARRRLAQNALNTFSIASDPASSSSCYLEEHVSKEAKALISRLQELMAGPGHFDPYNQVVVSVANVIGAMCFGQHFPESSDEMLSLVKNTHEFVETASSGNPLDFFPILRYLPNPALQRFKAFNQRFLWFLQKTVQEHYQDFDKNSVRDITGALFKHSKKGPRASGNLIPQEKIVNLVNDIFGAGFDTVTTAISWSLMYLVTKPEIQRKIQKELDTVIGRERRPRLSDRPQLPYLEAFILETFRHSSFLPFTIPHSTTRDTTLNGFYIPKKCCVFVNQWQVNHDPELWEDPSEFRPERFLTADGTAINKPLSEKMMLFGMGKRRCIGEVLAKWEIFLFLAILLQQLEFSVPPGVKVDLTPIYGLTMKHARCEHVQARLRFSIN
# Cytochrome P450 3A4, sequence (P08684 whole entry): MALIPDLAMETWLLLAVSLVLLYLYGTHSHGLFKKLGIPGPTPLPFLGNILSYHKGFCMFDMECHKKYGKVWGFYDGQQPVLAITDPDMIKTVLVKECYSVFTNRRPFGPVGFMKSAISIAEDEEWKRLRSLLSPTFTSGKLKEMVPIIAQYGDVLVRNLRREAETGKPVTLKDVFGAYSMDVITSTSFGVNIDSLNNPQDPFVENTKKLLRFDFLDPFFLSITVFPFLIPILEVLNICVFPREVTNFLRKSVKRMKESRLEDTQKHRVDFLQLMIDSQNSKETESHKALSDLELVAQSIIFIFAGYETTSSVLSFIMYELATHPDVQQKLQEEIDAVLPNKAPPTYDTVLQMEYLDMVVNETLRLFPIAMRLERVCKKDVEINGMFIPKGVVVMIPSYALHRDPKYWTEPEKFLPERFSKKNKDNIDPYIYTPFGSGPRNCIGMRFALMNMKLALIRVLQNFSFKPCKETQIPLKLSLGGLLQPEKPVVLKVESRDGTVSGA
# Cytochrome P450 2C19, sequence (P33261 whole entry): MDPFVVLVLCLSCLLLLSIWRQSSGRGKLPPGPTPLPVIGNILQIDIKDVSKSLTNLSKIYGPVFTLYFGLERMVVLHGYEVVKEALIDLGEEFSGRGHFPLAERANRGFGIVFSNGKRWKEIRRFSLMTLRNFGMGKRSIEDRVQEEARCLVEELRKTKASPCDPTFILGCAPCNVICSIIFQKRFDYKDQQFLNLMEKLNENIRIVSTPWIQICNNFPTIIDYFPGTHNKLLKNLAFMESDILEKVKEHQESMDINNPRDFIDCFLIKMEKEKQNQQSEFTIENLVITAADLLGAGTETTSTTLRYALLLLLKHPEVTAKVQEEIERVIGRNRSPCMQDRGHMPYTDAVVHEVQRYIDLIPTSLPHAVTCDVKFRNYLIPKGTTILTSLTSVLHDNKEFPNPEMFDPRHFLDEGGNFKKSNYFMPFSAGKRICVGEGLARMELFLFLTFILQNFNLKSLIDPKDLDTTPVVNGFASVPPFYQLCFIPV
# Cytochrome P450 2C9, sequence (P11712 whole entry): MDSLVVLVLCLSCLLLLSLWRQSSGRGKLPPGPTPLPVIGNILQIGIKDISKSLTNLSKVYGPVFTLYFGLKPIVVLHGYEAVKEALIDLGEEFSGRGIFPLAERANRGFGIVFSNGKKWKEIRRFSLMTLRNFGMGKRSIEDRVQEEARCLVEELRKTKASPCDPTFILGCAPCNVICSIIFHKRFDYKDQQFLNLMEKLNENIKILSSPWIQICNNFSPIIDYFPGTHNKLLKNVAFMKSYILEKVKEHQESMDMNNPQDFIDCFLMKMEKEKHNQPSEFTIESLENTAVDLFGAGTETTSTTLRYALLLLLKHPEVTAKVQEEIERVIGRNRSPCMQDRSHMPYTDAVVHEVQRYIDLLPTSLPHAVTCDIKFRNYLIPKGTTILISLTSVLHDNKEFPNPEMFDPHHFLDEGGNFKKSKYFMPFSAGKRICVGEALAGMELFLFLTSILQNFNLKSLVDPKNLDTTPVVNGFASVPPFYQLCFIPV
smiles,measurement,setting,value
CCN(CC)c1nc2c(c(=O)[nH]c(=O)n2C)n1CCOc1ccccc1,EC50,[1],> 195 µM (not active)
CN(c1ccccc1)S(=O)(=O)c1nnc(NC(=O)COc2ccccc2F)s1,EC50,[1],> 195 µM (not active)
CCc1nc2c(c(=O)c3ccccc3n2C)c(=O)n1C1CCCCCC1,CC50,[2],20.7 µM (active)
same,EC50,[3],6.21 µM (active)
Cc1cc([N+](=O)[O-])ccc1NC(=O)CCC(=O)N1CCCCC1,EC50,[1],> 195 µM (not active)
CCCCCc1nc2c(c(=O)c3ccccc3n2C)c(=O)n1Cc1ccc(OC)cc1,CC50,[2],> 50 µM (active)
Cc1cccc(-c2nnc3n2N=C(c2ccccc2)CS3)c1,EC50,[4],> 120 µM (not active)
same,EC50,[5],> 120 µM (not active)
same,EC50,[6],12.4 µM (active)
CCN1CCN(Cc2ccc(NC(=O)c3cc(NC(=O)c4cnnc5ccccc45)cc(OC)c3)cc2C(F)(F)F)CC1,CC50,[2],29 µM (active)
C=C(C)Cn1c(NCCC)nc2c1c(=O)n(C)c(=O)n2C,EC50,[1],> 195 µM (not active)
O=C(CN1CCN(Cc2ccccc2Cl)C1=O)NCc1ccccn1,EC50,[4],> 120 µM (not active)
same,EC50,[5],> 120 µM (not active)
same,EC50,[6],> 120 µM (not active)
O=C(c1ccc2c(=O)n(Cc3ccccc3)c(=S)[nH]c2c1)N1CCOCC1,EC50,[1],> 195 µM (not active)
Cc1oc(CC(C)C)cc1C(=O)Nc1cccc2ccccc12,AC50,[7],5 µM (active)
COc1c(Br)cc([N+](=O)[O-])c(OC)c1C(=O)NC(=O)Nc1cc(Cl)cc(Cl)c1,EC50,[4],> 120 µM (not active)
same,EC50,[5],17.8 µM (active)
same,EC50,[6],15.1 µM (active)
N#CN(CC(N)=O)c1nc(N2CCCCC2)nc(N2CCCCC2)n1,AC50,[8],22.4 µM (inconclusive)
same,AC50,[9],10 µM (inconclusive)
CCC(C)C1NC(=S)N(C2CCCCC2)C1=O (stereo not drawn),EC50,[4],> 120 µM (not active)
same,EC50,[5],> 120 µM (not active)
same,EC50,[6],> 120 µM (not active)
same,AC50,[10],17.8 µM (inconclusive)
COC(=O)[C@@H]1CC[C@H](C)[C@@H](c2ccc(C)cc2)N1C(=O)c1ccc(/C=N\OC[C@@H](O)COCc2ccco2)cc1,AC50,[8],2.51 µM (inconclusive)
same,AC50,[10],1.26 µM (inconclusive)
CCOc1ccc(/C=N/NC(=O)COc2ccccc2-c2ccccc2)cc1,AC50,[7],4.37 µM (active)
C[C@]12CC[C@H]3c4ccc(OC[C@H]5CO5)cc4CC[C@H]3[C@H]1CC[C@@H]2O,AC50,[8],3.16 µM (inconclusive)
same,AC50,[9],3.16 µM (inconclusive)
CCOc1ccc(N/C(=N/N)c2ccc3ccccc3n2)cc1,EC50,[1],> 195 µM (not active)
COc1ccccc1C(=O)N/C(=C\c1cn(S(=O)(=O)N(C)C)c2ccccc12)C(=O)NCCN1CCOCC1,EC50,[1],> 195 µM (not active)
COc1cc2cc(CN(C(=O)NC3CCCCC3)C3CCCC3)c(O)nc2cc1OC,EC50,[1],> 195 µM (not active)
COC(=O)c1c(NC(=O)/C=C/c2ccc3c(c2)OCO3)sc(C)c1C,AC50,[7],4.17 µM (active)
N#Cc1c(-c2ccc3c(c2)OCO3)csc1N,EC50,[1],> 195 µM (not active)
COC(=O)N1CCC2(CCCN(C(=O)Nc3cccc(C#N)c3)C2)CC1,AC50,[8],10 µM (inconclusive)
same,AC50,[10],6.31 µM (inconclusive)
CCOc1ccccc1-n1c(SCC(=O)Nc2ccc(CC)cc2)nc2nnc(C)c-2c1N,CC50,[2],45.1 µM (active)
same,EC50,[4],> 60 µM (not active)
same,EC50,[6],9.77 µM (active)
Cc1noc(C)c1CSCC(=O)Nc1ccc(S(=O)(=O)C(F)F)cc1,EC50,[1],> 195 µM (not active)
COc1cccc(C(c2nnnn2Cc2ccco2)N2CCN(c3cccc(C)c3C)CC2)c1OC (stereo not drawn),CC50,[2],18.5 µM (active)
CCCCc1ccc(NC(=O)Nc2cc(C)nn2C)cc1,AC50,[7],3.31 µM (active)
O=C(Nc1ccc2ccccc2c1)c1cn(-c2ccccc2)nc1-c1cccs1,CC50,[2],18.6 µM (active)
same,EC50,[11],1.86 µM (active)
same,EC50,[12],> 60 µM (not active)
C/C(NNc1ccccc1)=C1/C(=O)NC(=O)N(Cc2ccccc2)C1=O,AC50,[7],1.03 µM (active)
COc1ccc(NS(=O)(=O)c2ccc(-c3ccccn3)s2)cc1,EC50,[1],> 195 µM (not active)
CCSc1nnc(NC(=O)C(Cc2ccccc2)n2cccc2)s1 (stereo not drawn),EC50,[1],> 195 µM (not active)
O=S(=O)(Nc1nc2ccccc2nc1N1CCN(c2ccccc2F)CC1)c1ccc(Cl)cc1,AC50,[7],4.82 µM (active)
C=CCn1c(SCC(=O)NCCc2ccccc2)nnc1C(C)NC(=O)c1cccs1 (stereo not drawn),EC50,[1],> 195 µM (not active)
Cc1ccc2nc(CC(=O)c3ccc4ccccc4c3)c(O)nc2c1,AC50,[8],0.794 µM (inconclusive)
same,AC50,[13],2 µM (inconclusive)
same,AC50,[10],3.98 µM (inconclusive)
COc1cc2c(cc1OC)CN(C(=O)CCCOc1ccc(Cl)cc1Cl)CC2,CC50,[2],24.7 µM (active)
O=C(NCCCN1CCOCC1)c1ccc(-n2nc(C(F)(F)F)cc2-c2cccs2)cc1,EC50,[4],11.6 µM (active)
same,EC50,[5],34.9 µM (active)
same,EC50,[6],16.4 µM (active)
COCC(C)OC(=O)C(C#N)c1nc2ccccc2nc1N1CCN(Cc2ccccc2)CC1 (stereo not drawn),EC50,[4],17.6 µM (active)
same,EC50,[5],> 120 µM (not active)
same,EC50,[6],23.7 µM (active)
CCN(C(=O)C1CCCN(c2ncnc3c2nc2n3CCCCC2)C1)c1cccc(Cl)c1 (stereo not drawn),CC50,[2],10.7 µM (active)
CC(Nc1ccccc1CO)C(=O)Nc1cccc(Cl)c1Cl (stereo not drawn),EC50,[4],7.64 µM (active)
same,EC50,[5],0.12 µM (active)
same,EC50,[6],12.9 µM (active)
O=[N+]([O-])c1ccc(N/N=C/c2c[nH]c3ccccc23)c(S(=O)(=O)Nc2ccc(Cl)cc2)c1,AC50,[7],1.15 µM (active)
CC(C)CC1Nc2ccc(C(=O)NCCCN3CCOCC3)cc2NC1=O (stereo not drawn),EC50,[1],> 195 µM (not active)
Cc1noc(C)c1COC(=O)c1cccc(N(C)C)c1,CC50,[2],11.9 µM (active)
O=C(NNC(=O)C12CC3CC(CC(C3)C1)C2)c1ccccc1F,EC50,[4],17.7 µM (active)
same,EC50,[5],> 120 µM (not active)
same,EC50,[6],10.2 µM (active)
CC(C)OCCCNC(=O)C1CC(=O)N(C2CCCCCCC2)C1 (stereo not drawn),AC50,[8],17.8 µM (inconclusive)
same,AC50,[10],25.1 µM (inconclusive)
